Measured values: patent US6433007B1, “Methods for the prevention and treatment of post-surgical complications” (Alcon Manufacturing, Ltd., priority 1998, dated 2002)

Test system: vitrectomy-induced PSC formation
Test: Post-vitrectomy posterior subcapsular cataract (PSC) formation in Dutch Belted rabbits, surgical irrigating solution
Format: in vivo, Dutch Belted rabbit
Details: for Incidence of Lens Line Suture Distortion: irrigating solution w/1.0 μM Compound X, rabbit, affected lenses/total lenses
Protocol: The following example illustrates the reduction in frequency of post-vitrectomy cataract formation, employing a surgical irrigating solution containing a compound of formula (I).
Age-matched, Dutch Belted rabbits were used in this study. At 2.5 months of age, unilateral, partial vitrectomy (vitreous replaced by irrigating solution) was performed. Briefly, rabbits (1.5-2.0 kg) were prepared for surgery by subcutaneous administration of atropine to maintain heart rate and limit lung and oropharynx fluid accumulation. Animals were then anesthetized by intramuscular administration of ketamine (45 mg/kg) and xylazine (6 mg/kg). Anesthesia was maintained by re-administration of half-doses of anesthetic every 35-45 minutes as needed. For pupil dilatation, phenylephrine HCL and cyclopentolate HCL were administered topically to the surgical eye (OD). The nonsurgical eye (OS) received Duratears and was then taped shut to prevent loss of moisture. Immediately prior to surgery, proparacaine was administered topically to the OD eye and a speculum inserted. […] Two sutures were placed in a figure eight (4 and 8 o'clock position), about 4.5 mm from the limbus, to accommodate the outer port suction cutter and endoilluminator, respectively. An inner port infusion cannula was sutured through the pars plana (6 o'clock position) about 4 mm from the limbus. Two additional punctures were made with a V-lance stiletto knife (20 gauge) for the instrument entry through the outer ports. Two sutures were then placed (3 and 9 o'clock position) in the sclera, approximately 1 mm from the limbus, to facilitate manipulation of the eye and to secure the metal contact lens holder. Viscoat® (125 μL) was then applied to the cornea followed by the placement of a wide angle lens onto the cornea. The vitreous was then removed using the SERIES TEN THOUSAND® OCUTOME® posterior-segment surgical system for 10 minutes by a combination of cutting (500 cuts/minute) and suction (90 mm Hg), while continually supplying BSS® or BSS Plus® irrigating solution, or an irrigating solution containing Compound X (1.0 μM) (at room temperature), at a rate of approximately 3.5 mL/minute and an ocular fluid pressure of 35 mm Hg. Upon completion of the surgery, instruments were withdrawn, infusion pressure reduced to 22 mm Hg, sclerotomies closed, and the conjunctiva reapproximated at the limbus with sutures. A typical surgical procedure required approximately 40-50 minutes, utilizing approximately 100 mL of irrigation solution. The amount of vitreous replaced was approximately 1.5 mL. At various times following vitrectomy, lenses were excised and immediately examined by low resolution light microscopy. Photographs were taken with a digital camera for a later assessment of line suture defects.
The results of this study document the early development of PSC in the Dutch Belted rabbit following vitrectomy, as quantified by scoring for the presence of distorted suture branches and sub-branches. […] Comparison of the effect of vitrectomy with standard irrigation and the Compound X-supplemented irrigation 3 month post-surgery indicated a high incidence of an acute distortion of normally straight line sutures for animals of the standard irrigation treatment groups (Table 1) but not the Compound X treated animals. […] This abnormal condition was further aggravated at […] post-vitrectomy, as recognized by the extension of existing sub-branches and the development of additional small sub-branches. […] This condition was essentially maintained throughout twelve months post-vitrectomy.
In contrast, 86% (or 6 out of 7 lenses) of the lenses from the Compound X treatment group were unaffected by vitrectomy with an average suture defect score of +1.7 at this same time point. The lens scores of animals treated with the Compound X supplemented therapeutic irrigation solution were essentially identical to those of naive controls (scoreavg=+1.63). […]

For `COc1ccc2cc([C@H](C)C(=O)OCC[C@@]3(C)CCc4c(C)c(O)c(C)c(C)c4O3)ccc2c1` [Compound X, (S)-6-methoxy-[…]-methyl-naphthaleneacetic acid, (R)-2-(3,4-dihydro-6-hydroxy-2,5,7,8-tetramethyl-2H-1-benzopyran-2-yl)ethyl ester], the “rate of lens growth” value (3-12 months post-surgery, compared to naive controls, 1.0 μM in irrigating solution during vitrectomy) was “essentially identical to that of naive controls”, the “Incidence of Lens Line Suture Distortion” value (3 month post-Vitrectomy) was 0/8 and the “Incidence of Lens Line Suture Distortion” value (6 month post-Vitrectomy) was 1/7. The “Incidence of Lens Line Suture Distortion” value (12 month post-Vitrectomy) was 1/7, the “lenses unaffected by vitrectomy” value (12 months post-vitrectomy, 6 out of 7 lenses, 1.0 μM in irrigating solution) was 86% and the “average suture defect score” value (12 months post-vitrectomy, scale 0 (straight line suture) to +6 (very crooked suture pattern with many sub-branches or mature cataract), naive controls +1.63) was “+1.7”. The “lens suture appearance (distortion, sub-branches)” value (six months post-surgery, essentially maintained throughout twelve months post-vitrectomy, low resolution light microscopy) was “only slightly distorted suture branches which, on average, were devoid of sub-branches”.
